Data: patent US9695119B2, “Methionine analogs and methods of using same” (Bioxiness Pharmaceuticals, Inc., priority 2008, dated 2017)
Read-outs that look alike come from different tables or passages of the source.

What was measured:
L929 cells = conditions: mouse, 60 min
Procedure: Cytotoxicity is assessed by a colorimetric assay system (Sagripanti J-L, Bonifacino A. Cytotoxicity of Liquid Disinfectants. Surgical Infections, 2000; 1(1): 3-14, the content of which is hereby incorporated by reference, particularly with respect to the experimental methods described therein), using 3′-(phenylamino-carbonyl)-3,4-tetrazo-lium-bis(4-methoxy-6-nitro) benzene sulfonic acid hydrate (XTT), ProCheck™ cell viability assay (Evaluation of a soluble tetrazolium/formazan assay for cell growth and drug sensitivity in culture using human and other tumor cell lines described by Scudiero D A, Shoemaker R A H, Paul K D, Monks A, Tierney S, Nofziger T H, Currens M J, Seniff D, Boyd M R. Cancer Res. 1988 Sep. 1; 48(17):4827-33, the content of which is hereby incorporated by reference, particularly with respect to the experimental methods described therein). Similar approaches for determining the cell viability are used by other investigators. Three cell types are used: […] (L929), primary human skin fibroblast and primary human keratinocyte cells cultured in Dulbecco Modified Eagle's Medium and Keratinocyte defined medium with corresponding growth factors plus antibiotics. Cells are trypsinized and counted under the microscope and seeded at 1000-to-2000 cells per well of a flat-bottom 96-well plate. Cells are allowed to grow overnight at 37° C. Tissue culture media is removed the following day and cells are rinsed with fresh media 1× and then left in 50 μL of tissue culture media. Test articles are prepared as 2-fold dilutions and 200 μL is added into each set of 4-wells (total volume per well is 250 μL). Cells are exposed to test articles for 60 min at room temperature. Immediately after the exposed time, test article from each well is removed and cells are fed with 250 μL of fresh media. Plates are incubated at 37° C. for 18-20 hr. The following day media is removed again and replaced with 100 μL/well of fresh media containing 10/100 μL XTT-reagent. Cells are incubated under growth conditions (5% CO2 at 37° C. humidified incubator), protected from light, until color development is achieved. Absorbance is read at 450 nm with reference wavelength at 750 nm using Molecular Device ThermoMax Plate reader, blanking the plate on the medium-only assay blank wells. Untreated cells receiving XTT reagents-only serve as positive cell proliferation control.
Results are expressed as percentage of cells surviving the treatment as compared to PBS.

[1] = test system: test bacteria (gram positive and gram negative microorganisms commonly associated with wound infection); experiment: Broad spectrum bacterial growth inhibition, all test species together; format: cell-based; conditions: different bacteria in M9 minimal media
Procedure: (§1) Table 2 and FIG. 2 summarizes a series of studies, which were performed to test eradication of bacterial growth using various species (representative strains of gram positive and gram negative microorganisms commonly associated with wound infection). A 96-well plate format was used to culture different bacteria in M9 minimal media supplemented with glucose (M9) or same media supplemented with a range of concentrations of various analogues (Methionine, I-AA and I-AB). Experiments were carried out in duplicate.

E. coli (DH5-α) = experiment: Growth inhibition of E. coli by methionine analogs, 96-well plate, OD 550 nm over time; format: cell-based; conditions: for Absorbance: 12.5 mM, OD 550 nm
Excerpt: Comparative Minimum Bactericidal Concentration (MBC) results provide estimates of the susceptibility of various test articles against test organisms. A modification of the […] (NCCL) Standardized Protocol “Methods for dilution antimicrobial susceptibility tests for bacteria that grow aerobically” was used in these studies. Sterile Phosphate Buffer Saline (PBS) at pH 7.0 (vehicle) was used as the diluent. Use of such diluent allows for the determination of the intrinsic activity of our test articles in the absence of any interfering molecules. Specifically, each test article was diluted using 2-fold serial dilution in 96-well plate to give a range of concentrations from approximately 50 mM to 0.05 mM in a final volume of 0.1 mL. Each dilution was inoculated with 5×10^5 CFU/mL test bacteria. The initial optical density as absorbance of each well was read at OD 550 nm using ThermoMax plate reader. […] At various time intervals post-treatment, OD reading at 550 nm was recorded at various time intervals. FIG. 1A and Table 1 show time dependent growth inhibition capability of analogs on E. coli at 12.5 mM. For FIGS. 1A and 1B, the 96-well plate format was used to culture E. coli (DH5-α) cells in M9 minimal media supplemented with glucose (M9) or same media supplemented with a range of concentrations of various analogs. Experiments were carried out in duplicate.

Ps. sturtzeri = experiment: Broad spectrum bacterial growth inhibition, 96-well plate, M9 media; format: cell-based
Procedure: as §1

S. epidermids = experiment: as above; format: cell-based
Procedure: as §1

S. aureus = experiment: as above; format: cell-based
Procedure: as §1

## CSCC[C@H](NC(=O)CN)C(=O)NO.Cl [I-AB, (S)-2-(2-aminoacetamido)-N-hydroxy-4-(methylthio)butanamide hydrochloride]
L929 cells; 0.1 mM
  Percentage of Surviving L929 cells relative to control: 99%
L929 cells; 0.2 mM
  Percentage of Surviving L929 cells relative to control: 92%
L929 cells; 0.39 mM
  Percentage of Surviving L929 cells relative to control: 88%
L929 cells; 0.78 mM
  Percentage of Surviving L929 cells relative to control: 90%
L929 cells; 1.56 mM
  Percentage of Surviving L929 cells relative to control: 89%
L929 cells; 3.13 mM
  Percentage of Surviving L929 cells relative to control: 86%
L929 cells; 6.25 mM
  Percentage of Surviving L929 cells relative to control: 88%
L929 cells; 12.5 mM
  Percentage of Surviving L929 cells relative to control: 89%
L929 cells; 25 mM
  Percentage of Surviving L929 cells relative to control: 92%
L929 cells; 50 mM
  Percentage of Surviving L929 cells relative to control: 75%
[1]
  Concentration dependence of bacterial growth inhibition: concentration-dependent
  Time within which most bacteria were killed: ≤ 24 h
E. coli (DH5-α); E. coli, well 12, time 0 hrs
  Absorbance: 0.085
E. coli (DH5-α); E. coli, well 12, time 1 hrs
  Absorbance: 0.095
E. coli (DH5-α); E. coli, well 12, time 2 hrs
  Absorbance: 0.111
E. coli (DH5-α); E. coli, well 12, time 3 hrs
  Absorbance: 0.104
E. coli (DH5-α); E. coli, well 12, time 3.75 hrs
  Absorbance: 0.090
E. coli (DH5-α); E. coli, well 12, time 5 hrs
  Absorbance: 0.094
E. coli (DH5-α); E. coli, well 12, time 6.5 hrs
  Absorbance: 0.090
E. coli (DH5-α); E. coli, well 12, time 7.25 hrs
  Absorbance: 0.089
E. coli (DH5-α); E. coli, well 12, time 23 hrs
  Absorbance: 0.091
E. coli (DH5-α); E. coli, spot inoculated agar plate (FIG. 1B)
  Concentration dependence of bacterial growth inhibition: concentration-dependent
E. coli (DH5-α); as compared to M9 and other analogs
  E. coli growth inhibition: significantly inhibited
Ps. sturtzeri; Conc. 0.0, well 4, M9 media
  Broad Spectrum Bacterial Growth Inhibition Data, Ps. sturtzeri: 0.5
Ps. sturtzeri; Conc. 0.1, well 5, M9 media
  Broad Spectrum Bacterial Growth Inhibition Data, Ps. sturtzeri: 0.5
Ps. sturtzeri; Conc. 0.2, well 6, M9 media
  Broad Spectrum Bacterial Growth Inhibition Data, Ps. sturtzeri: 0.3
Ps. sturtzeri; Conc. 0.4, well 7, M9 media
  Broad Spectrum Bacterial Growth Inhibition Data, Ps. sturtzeri: 0.3
Ps. sturtzeri; Conc. 0.8, well 8, M9 media
  Broad Spectrum Bacterial Growth Inhibition Data, Ps. sturtzeri: 0.2
Ps. sturtzeri; Conc. 1.6, well 9, M9 media
  Broad Spectrum Bacterial Growth Inhibition Data, Ps. sturtzeri: 0.2
Ps. sturtzeri; Conc. 3.1, well 10, M9 media
  Broad Spectrum Bacterial Growth Inhibition Data, Ps. sturtzeri: 0.2
Ps. sturtzeri; Conc. 6.3, well 11, M9 media
  Broad Spectrum Bacterial Growth Inhibition Data, Ps. sturtzeri: 0.2
Ps. sturtzeri; Conc. 12.5, well 12, M9 media
  Broad Spectrum Bacterial Growth Inhibition Data, Ps. sturtzeri: 0.2
S. epidermids; Conc. 0.0, well 4, M9 media
  Broad Spectrum Bacterial Growth Inhibition Data, S. epidermids: 0.7
S. epidermids; Conc. 0.1, well 5, M9 media
  Broad Spectrum Bacterial Growth Inhibition Data, S. epidermids: 0.7
S. epidermids; Conc. 0.2, well 6, M9 media
  Broad Spectrum Bacterial Growth Inhibition Data, S. epidermids: 0.6
S. epidermids; Conc. 0.4, well 7, M9 media
  Broad Spectrum Bacterial Growth Inhibition Data, S. epidermids: 0.3
S. epidermids; Conc. 0.8, well 8, M9 media
  Broad Spectrum Bacterial Growth Inhibition Data, S. epidermids: 0.2
S. epidermids; Conc. 1.6, well 9, M9 media
  Broad Spectrum Bacterial Growth Inhibition Data, S. epidermids: 0.2
S. epidermids; Conc. 3.1, well 10, M9 media
  Broad Spectrum Bacterial Growth Inhibition Data, S. epidermids: 0.1
S. epidermids; Conc. 6.3, well 11, M9 media
  Broad Spectrum Bacterial Growth Inhibition Data, S. epidermids: 0.1
S. epidermids; Conc. 12.5, well 12, M9 media
  Broad Spectrum Bacterial Growth Inhibition Data, S. epidermids: 0.1
S. aureus; Conc. 0.0, well 4, M9 media
  Broad Spectrum Bacterial Growth Inhibition Data, S. aureus: 0.6
S. aureus; Conc. 0.1, well 5, M9 media
  Broad Spectrum Bacterial Growth Inhibition Data, S. aureus: 0.6
S. aureus; Conc. 0.2, well 6, M9 media
  Broad Spectrum Bacterial Growth Inhibition Data, S. aureus: 0.5
S. aureus; Conc. 0.4, well 7, M9 media
  Broad Spectrum Bacterial Growth Inhibition Data, S. aureus: 0.5
S. aureus; Conc. 0.8, well 8, M9 media
  Broad Spectrum Bacterial Growth Inhibition Data, S. aureus: 0.5
S. aureus; Conc. 1.6, well 9, M9 media
  Broad Spectrum Bacterial Growth Inhibition Data, S. aureus: 0.4
S. aureus; Conc. 3.1, well 10, M9 media
  Broad Spectrum Bacterial Growth Inhibition Data, S. aureus: 0.2
S. aureus; Conc. 6.3, well 11, M9 media
  Broad Spectrum Bacterial Growth Inhibition Data, S. aureus: 0.1
S. aureus; Conc. 12.5, well 12, M9 media
  Broad Spectrum Bacterial Growth Inhibition Data, S. aureus: 0.1
